{
  "source": "patent US20100041615A1",
  "about": "(Medac Gesellschaft Fur Klinische Spezialpraparate MBH, priority 2006, published 2010)",
  "key": {"[1]": {"tested_on": "OVCAR-3 (ovarian carcinoma growing subcutaneously)", "assay": "In vivo tumor-inhibiting properties, OVCAR-3 model", "set-up": "species or system nude mice NMRI", "conditions": "i.v. day 7, 14, 21, 28; dosage [mg/Kg] MTX equivalents: MTX 4 × 100, AW054-EMC 4 × 15, C175 3 × 15", "method": "Animals: nude mice NMRI; tumor model: OVCAR-3 (ovarian carcinoma growing subcutaneously) Therapy: day 7, 14, 21, 28; i. v. (10 mM sodium phosphate/5% D-glucose buffer pH 6.4); dosages relate to methotrexate equivalents."}, "[2]": {"tested_on": "collagen-induced arthritis model", "assay": "In vivo antirheumatic properties, collagen-induced arthritis model, therapy day 30-48", "set-up": "species or system mice (m, DBA/1)", "conditions": "i.v. day 30, 34, 37, 41, 44, 48; dosage [mg/Kg] MTX equivalents: MTX 6 × 35, AW054-EMC 6 × 20", "method": "Animals: mice (m, DBA/1; model: collagen-induced arthritis model) Therapy: day 30, 34, 37, 41, 44, 48; i. v. (10 mM sodium phosphate/5% D-glucose buffer pH 6.4); dosages relate to methotrexate equivalents."}, "[3]": {"target": "HSA (Homo sapiens, UniProt P02768)", "sequence (P02768 25-609)": "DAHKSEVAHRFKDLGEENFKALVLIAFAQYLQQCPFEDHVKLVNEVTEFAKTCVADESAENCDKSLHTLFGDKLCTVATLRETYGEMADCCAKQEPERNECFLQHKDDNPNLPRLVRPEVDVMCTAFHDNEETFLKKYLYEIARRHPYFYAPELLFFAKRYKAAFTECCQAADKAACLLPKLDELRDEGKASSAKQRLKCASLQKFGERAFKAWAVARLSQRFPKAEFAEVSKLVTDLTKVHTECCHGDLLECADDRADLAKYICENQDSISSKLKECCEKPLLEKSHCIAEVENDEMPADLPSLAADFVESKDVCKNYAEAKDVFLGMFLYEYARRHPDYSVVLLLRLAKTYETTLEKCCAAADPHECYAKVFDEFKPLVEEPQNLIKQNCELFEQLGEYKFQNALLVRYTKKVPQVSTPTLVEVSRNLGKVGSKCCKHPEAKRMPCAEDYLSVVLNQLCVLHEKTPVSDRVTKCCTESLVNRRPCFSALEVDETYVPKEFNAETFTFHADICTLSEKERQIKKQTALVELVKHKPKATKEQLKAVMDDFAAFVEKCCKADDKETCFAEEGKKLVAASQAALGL", "assay": "Bonding to HSA in human plasma (C18-RP-HPLC)"}, "[4]": {"assay": "Cleavage experiments of the albumin conjugates, summary of the examples", "assay_type": "in vitro ADME", "conditions": "after cleavage of the albumin conjugates", "method": "It becomes evident from the examples that after incubation with human blood plasma, the corresponding albumin conjugate is substantially formed already after 2 min. […] The cleavage results in the formation of e.g. H-Lys(γ-MTX)-OH, which constitutes the only low-molecular cleavage product. […] In the case of the collagen-induced arthritis model, it is about 20% of the corresponding methotrexate equivalent dosage."}, "[5]": {"tested_on": "collagen-induced arthritis model", "assay": "Collagen-induced arthritis model, therapy twice a week as of day 14, 42 or 30 (Table 1: early treatment protocol)", "assay_type": "in vivo, mice (m, DBA/1)", "conditions": "35 mg/kg, n = 15, early treatment protocol", "method": "Animals: mice (m, DBA/1; model: collagen-induced arthritis model) Therapy: twice a week as of day 14, 42 and 30, respectively; i. v. (10 mM sodium phosphate/5% D-glucose buffer pH 6.4); dosages relate to methotrexate equivalents."}, "[6]": {"assay": "synovial fluid of six patients suffering from rheumatoid arthritis", "conditions": "human (patients suffering from rheumatoid arthritis), 37° C., up to four hours"}, "[7]": {"assay": "human blood plasma", "conditions": "37° C., up to 24 hours"}, "[8]": {"tested_on": "human plasma plasmin", "assay": "human plasma plasmin (370 mU) in buffer (4 mM sodium phosphate, 150 mM NaCl, pH 7.4)", "conditions": "37° C., up to 20 hours"}, "[9]": {"tested_on": "human cathepsin B", "assay": "human cathepsin B (2.1 U) in buffer (50 mM sodium acetate, 100 mM NaCl, 4 mM EDTA*2 Na, 8 mM L-cysteine, pH 5.0)", "conditions": "37° C., up to 24 hours"}, "[10]": {"assay": "OVCAR-3 tumor homogenate (homogenate of a human ovarian xenograft)", "conditions": "human ovarian xenograft (OVCAR-3), 37° C., up to four hours"}, "[11]": {"target": "human plasma plasmin (Homo sapiens, UniProt P00747)", "sequence (P00747 581-810 limits assumed)": "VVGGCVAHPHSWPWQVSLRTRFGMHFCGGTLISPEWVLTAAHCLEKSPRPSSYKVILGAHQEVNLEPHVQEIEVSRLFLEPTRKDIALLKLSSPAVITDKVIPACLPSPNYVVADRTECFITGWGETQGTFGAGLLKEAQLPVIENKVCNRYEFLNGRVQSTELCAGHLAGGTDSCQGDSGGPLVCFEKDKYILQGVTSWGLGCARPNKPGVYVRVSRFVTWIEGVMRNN", "sequence (P00747 98-580 partner limits assumed)": "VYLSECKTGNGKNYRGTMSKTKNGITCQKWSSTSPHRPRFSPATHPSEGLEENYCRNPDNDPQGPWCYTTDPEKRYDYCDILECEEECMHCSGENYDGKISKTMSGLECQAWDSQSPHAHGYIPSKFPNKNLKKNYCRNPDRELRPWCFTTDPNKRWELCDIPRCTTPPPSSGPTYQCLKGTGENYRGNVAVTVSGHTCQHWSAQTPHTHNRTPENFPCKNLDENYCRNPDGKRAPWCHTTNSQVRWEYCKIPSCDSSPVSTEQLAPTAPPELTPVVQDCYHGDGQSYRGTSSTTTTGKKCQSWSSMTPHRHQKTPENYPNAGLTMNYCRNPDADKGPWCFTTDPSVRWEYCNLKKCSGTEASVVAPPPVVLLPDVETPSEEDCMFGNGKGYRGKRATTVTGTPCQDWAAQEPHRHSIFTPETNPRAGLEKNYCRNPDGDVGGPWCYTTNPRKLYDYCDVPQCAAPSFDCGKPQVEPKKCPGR", "assay_type": "biochemical", "conditions": "pH 7.4", "method": "Preparation of the albumin conjugate: 4.00 mg of EMC-D-Ala-Phe-Lys-Lys(γ-MTX)-OH are dissolved in 8 mL of a 5% HSA solution (Octopharm) at room temperature and shaken at 37° C. for 2 hours. Subsequently, the sample is brought to a concentration of 700 μM by concentration with Centriprep® disposable concentrators.\nCleavage by plasmin: Now, 100 μL of the solution of the albumin conjugate are diluted with 500 μL buffer (4 mM sodium phosphate, 150 mM NaCl, pH 7.4), 20 μL of human plasma plasmin (370 mU) are added and the mixture is incubated at 37° C. The determination of the cleavage products is performed with the HPLC method described in Example 2 (FIGS. 3 and 4)."}, "[12]": {"assay_type": "in vitro ADME, human", "method": "Preparation of the Tumor Homogenate: The Tumor Material is Comminuted by Means of a scalpel, and 200 mg of the mass are homogenized in a shaker with 800 μL buffer (Tris-buffer pH 7.4) with addition of 3-4 glass beads. Subsequently, centrifugation is carried out at 4° C. and the supernatant is aliquoted to 200 μL.\nNow, 100 μL of the solution of the albumin conjugate EMC-D-Ala-Phe-Lys-Lys(γ-MTX)-OH described in Example 4 are diluted with 500 μL of a homogenate solution (homogenate, 1:2 diluted with buffer [4 mM sodium phosphate, 150 mM NaCl, pH 7.4]) and incubated at 37° C. The determination of the cleavage products is performed with the HPLC method described in Example 2 (FIG. 7)."}},
  "note": "Starred links: 1 amine or outer side, 2 acyl side, 3 side chain; linkers in the order of their positions; H or OH if unused. Non-standard residues stand in square brackets, D forms with d. Residues, ends and D or L forms follow the SMILES beside them. Groups on a side chain read outwards from the residue. *: point of attachment. γ‑MTX = gamma-methotrexate, CN(Cc1cnc2nc(N)nc(N)c2n1)c1ccc(C(=O)N[C@@H](CCC(=O)*)C(=O)O)cc1; DAMPA = CN(Cc1cnc2nc(N)nc(N)c2n1)c1ccc(C(=O)*)cc1; Hexanoyl(6-maleimido) = O=C1C=CC(=O)N1CCCCCC(=O)*; γGlu = O=C(O)[C@H](CCC(=O)[*:2])N[*:1]",
  "data": [
    {"molecule": "C[C@@H](NC(=O)CCCCCN1C(=O)C=CC1=O)C(=O)N[C@@H](Cc1ccccc1)C(=O)N[C@@H](CCCCN)C(=O)N[C@@H](CCCCNC(=O)CC[C@H](NC(=O)c1ccc(N(C)Cc2cnc3nc(N)nc(N)c3n2)cc1)C(=O)O)C(=O)O", "note": "[AW054-EMC, EMC-D-Ala-Phe-Lys-Lys(γ-MTX)-OH] ({Hexanoyl(6-maleimido)}-[dA]FKK([γGlu-DAMPA])-OH)", "values": [
      {"measurement": "change of body weight [%]", "setting": "[1]", "value": "+12%"},
      {"measurement": "change of body weight [%]", "setting": "[2]", "value": "−0.2", "unit": "%"}
    ]},
    {"molecule": "CSCC[C@H](NC(=O)[C@H](Cc1ccccc1)NC(=O)[C@H](C)NC(=O)[C@H](CCCNC(=N)N)NC(=O)CCCCCN1C(=O)C=CC1=O)C(=O)N[C@@H](CCCCNC(=O)CC[C@H](NC(=O)c1ccc(N(C)Cc2cnc3nc(N)nc(N)c3n2)cc1)C(=O)O)C(=O)O", "note": "[C162, EMC-Arg-Ala-Phe-Met-Lys(γ-MTX)-OH] ({Hexanoyl(6-maleimido)}-RAFMK([γGlu-DAMPA])-OH)", "values": [
      {"measurement": "bonding of the prodrug to HSA (albumin) in human plasma", "setting": "[3]; 200 μM, 2 min incubation with human blood plasma at 37° C., HPLC detection at 300 or 370 nm", "value": "almost complete decrease of the prodrug peak"},
      {"measurement": "bonding of the prodrug to albumin in plasma with blocked cysteine-34-group", "setting": "[3]; human blood plasma incubated with EMC (1000 μM) in advance, detection 370 nm", "value": "does not show a bonding of the prodrug to albumin"}
    ]},
    {"molecule": "CSCC[C@H](NC(=O)[C@H](C)NC(=O)[C@H](CCCNC(=N)N)NC(=O)[C@H](CCCNC(=N)N)NC(=O)CCCCCN1C(=O)C=CC1=O)C(=O)N[C@@H](CCCCNC(=O)CC[C@H](NC(=O)c1ccc(N(C)Cc2cnc3nc(N)nc(N)c3n2)cc1)C(=O)O)C(=O)O", "note": "[C175, EMC-Arg-Arg-Ala-Met-Lys(γ-MTX)-OH] ({Hexanoyl(6-maleimido)}-RRAMK([γGlu-DAMPA])-OH)", "values": [
      {"measurement": "change of body weight [%]", "setting": "[1]", "value": "+7%"}
    ]},
    {"molecule": "CN(Cc1cnc2nc(N)nc(N)c2n1)c1ccc(C(=O)NC(CCC(=O)NCCCCC(N)C(=O)O)C(=O)O)cc1", "note": "(centres unmarked) [H-Lys(γ-MTX)-OH]", "values": [
      {"measurement": "further cleavage of the cleavage product into MTX and lysine", "setting": "[4]", "value": "not cleaved into MTX and lysine any more"}
    ]},
    {"molecule": "CN(Cc1cnc2nc(N)nc(N)c2n1)c1ccc(C(=O)N[C@@H](CCC(=O)O)C(=O)O)cc1", "note": "[MTX, Methotrexate]", "values": [
      {"measurement": "improved or achieved abatement after created disease, figure in parentheses (share of animals)", "setting": "[5]", "value": "(53)"},
      {"measurement": "improved or achieved abatement after created disease, number of animals", "setting": "[5]", "value": 8},
      {"measurement": "mean arthritis score at the end of the test", "setting": "[5]", "value": 3.1},
      {"measurement": "mean period of time until breakout of renewed arthritis after beginning of treatment", "setting": "[5]", "value": 17.3, "unit": "days"},
      {"measurement": "occurrence of arthritis at the end of the test (%)", "setting": "[5]", "value": "(60) %"},
      {"measurement": "occurrence of arthritis at the end of the test, number of animals", "setting": "[5]", "value": 9},
      {"measurement": "T/C [%] maximum", "setting": "[1]", "value": 69, "unit": "%"},
      {"measurement": "change of body weight [%]", "setting": "[1]", "value": "+19%"},
      {"measurement": "RA score Tag 55", "setting": "[2]", "value": 8.30},
      {"measurement": "change of body weight [%]", "setting": "[2]", "value": "+6.9%"}
    ]},
    {"molecule": "EMC-Arg-Ala-Phe-Met-Lys(γ-MTX)-OH", "values": [
      {"measurement": "fragment found", "setting": "[6]", "value": "H-Lys(γ-MTX)-OH, four hours"}
    ]},
    {"molecule": "EMC-D-Ala-Phe-Lys-Lys(γ-MTX)-OH ({Hexanoyl(6-maleimido)}-[dA]FKK([γGlu-DAMPA])-OH; SMILES C[C@@H](NC(=O)CCCCCN1C(=O)C=CC1=O)C(=O)N[C@@H](Cc1ccccc1)C(=O)N[C@@H](CCCCN)C(=O)N[C@@H](CCCCNC(=O)CC[C@H](NC(=O)c1ccc(N(C)Cc2cnc3nc(N)nc(N)c3n2)cc1)C(=O)O)C(=O)O)", "values": [
      {"measurement": "not cleaved", "setting": "[7]", "value": "loss of MTX is less than 10% after 24 hours"}
    ]},
    {"molecule": "HSA-EMC-D-Ala-Phe-Lys-Lys(γ-MTX)-OH", "values": [
      {"measurement": "cleaved bond", "setting": "[8]", "value": "Lys-Lys, one and four hours, respectively"},
      {"measurement": "cleaved bond", "setting": "[9]", "value": "Lys-Lys, one and four hours, respectively"},
      {"measurement": "fragment found", "setting": "[10]", "value": "H-Lys(γ-MTX)-OH, four hours"}
    ]},
    {"molecule": "HSA-EMC-D-Ala-Phe-Lys-Lys(γ-MTX)-OH ({HSA-Hexanoyl(6-maleimido)}-[dA]FKK(γ‑MTX)-OH)", "values": [
      {"measurement": "cleavage by plasmin", "setting": "[11]", "value": "formation of H-Lys(γ-MTX)-OH as a cleavage product"},
      {"measurement": "cleavage in OVCAR-3 tumor homogenate", "setting": "[12]", "value": "formation of H-Lys(γ-MTX)-OH as a cleavage product can be observed"}
    ]}
  ]
}
